Assay results from publication PMC9607599, “Dual Targeting Ligands—Histamine H3 Receptor Ligands with Monoamine Oxidase B Inhibitory Activity—In Vitro and In Vivo Evaluation” (Pharmaceutics, 2022).
“And” between values parts separate entries of the source, which are not always exact repeats. Identical values can stand only once. Counter-ions that a name gives are not always drawn. Like-named read-outs stand apart in the source and are kept apart here.

Tests used:
[1] = molecular target: human histamine H3 receptor (hH3R) (Homo sapiens, UniProt Q9Y5N1); test: [3H]Nα-methylhistamine radioligand binding assay in CHO-K1 cells stably expressing hH3R; design: expressed in transfected cells; host or cells: CHO-K1; settings: for Ki: CHO-K1 cells, [3H]Nα-methylhistamine, mean ± SEM of three independent experiments; for inhibition at 1 µM / hH3R activity in words: CHO K1 cells; for inhibition at 1 µM: two independent experiments, read-out: hH3R % Inh. (radioligand inhibition)
Sequence of human histamine H3 receptor (hH3R) (Q9Y5N1 whole entry): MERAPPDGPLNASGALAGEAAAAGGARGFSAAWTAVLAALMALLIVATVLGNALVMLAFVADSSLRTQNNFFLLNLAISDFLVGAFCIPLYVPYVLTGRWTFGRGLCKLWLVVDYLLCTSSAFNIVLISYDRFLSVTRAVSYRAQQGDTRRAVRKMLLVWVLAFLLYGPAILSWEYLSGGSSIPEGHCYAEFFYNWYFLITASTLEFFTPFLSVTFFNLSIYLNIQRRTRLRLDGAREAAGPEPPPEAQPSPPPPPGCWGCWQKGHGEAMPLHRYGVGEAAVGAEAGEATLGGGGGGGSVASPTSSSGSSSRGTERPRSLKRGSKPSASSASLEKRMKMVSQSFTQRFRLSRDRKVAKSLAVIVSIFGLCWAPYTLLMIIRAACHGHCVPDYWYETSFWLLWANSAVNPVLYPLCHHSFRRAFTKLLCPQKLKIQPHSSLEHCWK
Protocol: Affinity to hH3R stably expressed in CHO-K1 [6] or HEK293 [11] cells was evaluated in a radioligand binding assay as described previously. Briefly, 10 mM stock solutions of the test compounds in DMSO were prepared. Each compound was tested at eight concentrations ranging from 10^−5 to 10^−12 M (final concentration). All assays were carried out in duplicate. […] The radioactivity was counted in MicroBeta 2 [6] or MicroBeta Trilux counter (PerkinElmer). Data were fitted to a one-site curve-fitting equation with Prism 6 (GraphPad Software, San Diego, CA, USA) and Ki values were calculated from IC50 values (from at least three experiments performed in duplicates) according to the Cheng−Prusoff equation [12].
Affinity for hH3R was evaluated in a radioligand binding assay using [^3H]N^α-methylhistamine as radioligand in CHO K1 or HEK293 cells stably expressing hH3R as described previously. […] Then, those with at least 50% inhibition for hH3R were selected for further testing (Ki evaluation). […] Compounds were tested in the binding assay in HEK293 cells.

human MAO B (hMAO B) [2] = molecular target: T1, human MAO B (hMAO B) (Homo sapiens, UniProt P27338); test: fluorometric MAO assay (p-tyramine substrate); assay type: biochemical; settings: for IC50: fluorometric MAO assay, mean ± SEM of 2–4 independent experiments; for inhibition at 1 µM: mean of two independent experiments, read-out: hMAO B % of Inh.
T1 sequence (P27338 1-520): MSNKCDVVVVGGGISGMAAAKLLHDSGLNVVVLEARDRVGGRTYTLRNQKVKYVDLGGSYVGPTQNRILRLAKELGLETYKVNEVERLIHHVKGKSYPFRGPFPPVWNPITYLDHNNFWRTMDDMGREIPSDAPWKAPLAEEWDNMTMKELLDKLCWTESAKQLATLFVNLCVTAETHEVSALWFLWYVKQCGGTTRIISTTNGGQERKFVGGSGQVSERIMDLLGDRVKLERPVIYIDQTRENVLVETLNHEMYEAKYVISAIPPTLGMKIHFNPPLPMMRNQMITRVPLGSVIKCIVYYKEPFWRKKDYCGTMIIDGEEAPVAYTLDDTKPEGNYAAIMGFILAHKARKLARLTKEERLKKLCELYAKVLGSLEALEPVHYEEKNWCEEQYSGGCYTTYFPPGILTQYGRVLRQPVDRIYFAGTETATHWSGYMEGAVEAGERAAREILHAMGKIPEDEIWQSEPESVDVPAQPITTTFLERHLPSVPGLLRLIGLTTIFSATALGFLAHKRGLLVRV
Protocol: The precise method was described in [6]. First, compounds 4–32 were screened for hMAO B inhibitory activity at 1 μM concentration by the fluorometric method. Para-tyramine (200 μM) was used as a substrate for the enzyme and safinamide (1 μM) was used as a reference compound. […] Each experiment was performed in duplicate.
All compounds were first screened for hMAO B inhibitory activity at the concentration of 1 μM. […] Based on the results, we selected compounds 9 and 13 for further analysis.

human MAO B (hMAO B) [3] = molecular target: T1, human MAO B (hMAO B); test: modality of hMAO B inhibition (Michaelis-Menten / Lineweaver-Burk); assay type: biochemical
Protocol: Modality of hMAO B inhibition was evaluated for compounds 9 and 13 and the reference safinamide according to the method described previously. Three concentrations of inhibitors, corresponding to their IC20, IC50 and IC80 values, were used. Each experiment was performed in triplicate. KM and Vmax values were calculated from Michaelis–Menten curves by nonlinear regression from the substrate. Lineweaver–Burk plots were calculated using linear regression in GraphPad Prism 6.07 (GraphPad Software, San Diego, CA, USA).
For testing modality of enzyme inhibition, we used three concentrations of inhibitors that corresponded to their IC20, IC50 and IC80 values. Substrate (p-tyramine) was used at concentrations: 0.05, 0.1, 0.5, 1.0, 1.5 and 2.0 mM.

MAO B = molecular target: T2, MAO B (Homo sapiens, UniProt P27338); test: reversibility of MAO B inhibition (reactivation by excess p-tyramine, with/without preincubation); assay type: biochemical; settings: inhibitor at IC80; for reversibility of MAO B inhibition: excess p-tyramine 200 µM
T2 sequence (P27338 1-520): T1 sequence (P27338 1-520)
Protocol: The reversibility of the MAO inhibition was tested as described in [6, 7]. […] Two variants of experiment were performed. […] After 22 min, the concentration of the substrate was increased to 200 µM and the signal was measured for 5 h.

[4] = inhibitor at IC20, IC50, IC80, p-tyramine 0.05–2.0 mM

Row | Ki ([1]; read-out: hH3R Ki [nM] ± SEM) | inhibition at 1 µM [1] [%] | IC50 (human MAO B (hMAO B) [2]) [nM] | SMILES | inhibition at 1 µM (human MAO B (hMAO B) [2]) [%] | melting point | further results
1 | > 1000 nM | 32 | 2320 ± 436 | CC(C)(C)c1ccc(NC(=O)OCCCN2CCCCC2)cc1 [Compound 29, 3-(Piperidin-1-yl)propyl (4-(tert-butyl)phenyl)carbamate hydrogen oxalate] | – | – | –
2 | – | 8 | 37 ± 6 | CC(C)N(CCCOc1ccc(C(C)(C)C)cc1)C(C)C [Compound 8, 3-(4-(tert-Butyl)phenoxy)-N,N-diisopropylpropan-1-amine hydrogen chloride] | – | – | –
3 | > 1000 nM | 13 | – | CC(C)(C)c1ccccc1OCCCN1CCCCC1 [Compound 24, 1-(3-(2-(tert-Butyl)phenoxy)propyl)piperidine hydrogen oxalate] | 4 | – | –
4 | – | 32 | 15 ± 4 | CCN(CC)CCCOc1ccc(C(C)(C)C)cc1 [Compound 7, 3-(4-(tert-Butyl)phenoxy)-N,N-diethylpropan-1-amine hydrogen oxalate] | – | – | –
5 | – | 19 | – | CC(C)(C)CC(C)(C)NC(=O)OCCCN1CCCCC1 [Compound 31, 3-(Piperidin-1-yl)propyl (2,4,4-trimethylpentan-2-yl)carbamate hydrogen oxalate] | 41 | – | –
6 | 57 nM and 57.5 nM | – | – | CC(C)(C)c1ccc(OCCCN2CCCCC2)cc1 [DL76, 1-(3-(4-tert-butylphenoxy)propyl)piperidine, reference compound] | – | – | –
7 | 340 ± 23 nM | – | 1020 ± 69 | CC(C)(C)c1cccc(OCCCN2CCCCC2)c1 [Compound 25, 1-(3-(3-(tert-Butyl)phenoxy)propyl)piperidine hydrogen chloride] | – | – | –
8 | > 1000 nM | 0 | – | Cc1ccc(C(C)(C)C)c(OCCCN2CCCCC2)c1 [Compound 27, 1-(3-(2-(tert-Butyl)-5-methylphenoxy)propyl)piperidine hydrogen oxalate] | 4 | – | –
9 | – | 15 | – | CC(C)(C)NC(=O)OCCCN1CCCCC1 [Compound 30, 3-(Piperidin-1-yl)propyl tert-butylcarbamate hydrogen oxalate] | 47 | – | –
10 | < 100 nM and 97 nM | – | 9 ± 1 | CC1CCCC(C)N1CCCOc1ccc(C(C)(C)C)cc1 (centres unmarked) [Compound 11, 1-(3-(4-(tert-Butyl)phenoxy)propyl)-2,6-dimethylpiperidine hydrogen chloride] | – | – | –
11 | – | 20 | 925 ± 29 | CC(C)(C)CCNC(=O)OCCCN1CCCCC1 [Compound 32, 3-(Piperidin-1-yl)propyl (3,3-dimethylbutyl)carbamate hydrogen oxalate] | – | – | –

Further lines, the compound ahead of its results:

Row | SMILES | Ki ([1]; read-out: hH3R Ki [nM] ± SEM) | inhibition at 1 µM [1] [%] | IC50 (human MAO B (hMAO B) [2]) [nM] | inhibition at 1 µM (human MAO B (hMAO B) [2]) [%] | melting point | further results
12 | CC(C)N(C)CCCOc1ccc(C(C)(C)C)cc1 [Compound 6, 3-(4-(tert-Butyl)phenoxy)-N-isopropyl-N-methylpropan-1-amine hydrogen oxalate] | 900 ± 75 nM | – | 6 ± 1 | – | – | –
13 | CN(C)CCCOc1ccc(C(C)(C)C)cc1 [Compound 4, 3-(4-(tert-Butyl)phenoxy)-N,N-dimethylpropan-1-amine hydrogen oxalate] | – | 24 | 19 ± 2 | – | – | –
14 | CC(C)(C)c1ccc(OCCCN2CCOCC2)cc1.O=C(O)C(=O)O [Compound 14, 4-(3-(4-(tert-Butyl)phenoxy)propyl)morpholine hydrogen oxalate] | – | 11 | 192 ± 14 | – | 188 to 192 °C | hH3R activity in words [1]: weak potency
15 | CC(C)(C)c1ccc(OCCCN2CCN(C/C=C\c3ccccc3)CC2)cc1.O=C(O)C(=O)O [Compound 17, (Z)-1-(3-(4-(tert-Butyl)phenoxy)propyl)-4-(3-phenylallyl)piperazine hydrogen oxalate] | – | 0 | – | 7 | 217 to 219 °C | hH3R activity in words [1]: no activity at all
16 | CN1CCN(CCCOc2ccc(C(C)(C)C)cc2)CC1.O=C(O)C(=O)O [Compound 15, 1-(3-(4-(tert-Butyl)phenoxy)propyl)-4-methylpiperazine hydrogen oxalate] | – | 0 | 665 ± 118 | – | – | hH3R activity in words [1]: no activity at all
17 | CC1CCCC(C)N1CCCOc1ccc(C(C)(C)C)cc1.Cl (centres unmarked) (hydrate or solvate) [Compound 11, 1-(3-(4-(tert-Butyl)phenoxy)propyl)-2,6-dimethylpiperidine hydrogen chloride] | – | – | – | – | 194 to 196 °C (dec.) | –
18 | Cc1cccc(C(C)(C)C)c1OCCCN1CCCCC1.O=C(O)C(=O)O [Compound 26, 1-(3-(2-(tert-Butyl)-6-methylphenoxy)propyl)piperidine hydrogen oxalate] | > 1000 nM | 0 | – | 0 | 134 to 135 °C | –
19 | C[C@H](NCc1ccc(OCc2cccc(F)c2)cc1)C(N)=O [Safinamide, reference compound] | – | – | – | – | – | Affinity (free enzyme vs enzyme-substrate complex) (human MAO B (hMAO B) [3]): Free enzyme > enzyme-substrate complex; Mode of inhibition from kinetic values and LB plot (human MAO B (hMAO B) [3]): Mixed mode; Lines on LB plot (human MAO B (hMAO B) [3]; Lineweaver–Burk double-reciprocal plot): Lines intersect to the left of y-axis and above x-axis; app. KM (human MAO B (hMAO B) [3]; [4]): ↑ curvilinearly with ↑ [I]; app. Vmax (human MAO B (hMAO B) [3]; [4]): ↓ curvilinearly with ↑ [I]; app. Vmax/app. KM (human MAO B (hMAO B) [3]; [4]): ↓ curvilinearly with ↑ [I]; effect of 30 min preincubation on inhibition (preincubated vs non-preincubated) (MAO B): did not show differences between the variants; reversibility of MAO B inhibition (MAO B): reversible inhibition
20 | Cc1ccc(OCCCN2CCCCC2)c(C(C)(C)C)c1.O=C(O)C(=O)O [Compound 28, 1-(3-(2-(tert-Butyl)-4-methylphenoxy)propyl)piperidine hydrogen oxalate] | 448 ± 59 nM | – | – | 7 | 182 to 184 °C | –
21 | CC(C)(C)c1ccc(OCCCN2CCN(c3ccccc3)CC2)cc1.O=C(O)C(=O)O [Compound 16, 1-(3-(4-(tert-Butyl)phenoxy)propyl)-4-phenylpiperazine hydrogen oxalate] | – | – | – | 14 | 164 to 166 °C | hH3R activity in words [1]: weak potency; Ki ([1]; hH3R Ki [nM] ± SEM): 535 ± 41 nM
22 | C#CCN[C@@H]1CCc2ccccc21 [rasagiline, reference compound] | – | – | – | – | – | effect of 30 min preincubation on inhibition (preincubated vs non-preincubated) (MAO B): inhibited the enzyme more strongly than non-preincubated; reversibility of MAO B inhibition (MAO B): Irreversible inhibition
23 | CCN(CC)CCCOc1ccc(C(C)(C)C)cc1.O=C(O)C(=O)O (hydrate or solvate) [Compound 7, 3-(4-(tert-Butyl)phenoxy)-N,N-diethylpropan-1-amine hydrogen oxalate] | – | – | – | – | 105 to 108 °C | –
24 | CCN(C)CCCOc1ccc(C(C)(C)C)cc1 [Compound 5, 3-(4-(tert-Butyl)phenoxy)-N-ethyl-N-methylpropan-1-amine hydrogen oxalate] | 484 ± 15 nM | – | 9 | – | – | –
25 | CC(C)(C)c1cccc(OCCCN2CCCCC2)c1.Cl (hydrate or solvate) [Compound 25, 1-(3-(3-(tert-Butyl)phenoxy)propyl)piperidine hydrogen chloride] | – | – | – | – | 145 to 148 °C | –
